Laboratory results from ChEMBL document CHEMBL1152671, “Structure-activity relationship studies of manzamine A: amidation of positions 6 and 8 of the beta-carboline moiety” (Bioorg Med Chem, 2009).
Converted amounts (≈) assume the structure as drawn. The source made the active and inactive calls. The calls are words filed in the database; no cut-off is given here.

Columns and labels:
Plasmodium falciparum [1] = test: Antimalarial activity against chloroquine-sensitive Plasmodium falciparum D6 infected in African green monkey (Cercopithecus aethiops) Vero cells assessed as parasite LDH activity after 72 hrs; format: functional, organism-based
Plasmodium falciparum [2] = test: Antimalarial activity against chloroquine-resistant Plasmodium falciparum W2 infected in African green monkey (Cercopithecus aethiops) (Cercopithecus aethiops) Vero cells assessed as parasite LDH activity after 72 hrs; format: functional, organism-based
Vero = test: Cytotoxicity against african green monkey Vero cells up to 470 nM by neutral red assay; format: cell-based; conditions: chlorocebus sabaeus
Candida albicans [3] = test: Antifungal activity against Candida albicans by modified NCCLS method; format: functional, organism-based
Cryptococcus neoformans [4] = test: Antifungal activity against Cryptococcus neoformans by modified NCCLS method; format: functional, organism-based
Cryptococcus neoformans [5] = test: Antifungal activity against Cryptococcus neoformans after 24 hrs by alamar blue assay; format: functional
[6] = system: Mycobacterium intracellulare; test: Antibacterial activity against Mycobacterium intracellular by alamar blue assay; format: functional, organism-based
[7] = system: Mycobacterium intracellulare; test: Antibacterial activity against Mycobacterium intracellular after 24 hrs by alamar blue assay; format: functional
Aspergillus fumigatus [8] = test: Antifungal activity against Aspergillus fumigatus by modified NCCLS method; format: functional, organism-based
Escherichia coli = test: Antibacterial activity against Escherichia coli by modified NCCLS method; format: functional, organism-based
Pseudomonas aeruginosa = test: Antibacterial activity against Pseudomonas aeruginosa by modified NCCLS method; format: functional, organism-based
Candida albicans [9] = system: Candida albicans
Description: Antifungal activity against Candida albicans after 24 hrs by alamar blue assay

Aspergillus fumigatus [10] = system: Aspergillus fumigatus
Description: Antifungal activity against Aspergillus fumigatus after 24 hrs by alamar blue assay

[11] = Candida albicans, read-out: IC50
[12] = Cryptococcus neoformans, read-out: IC50

SMILES	IC50 (Plasmodium falciparum [1])	IC50 (Plasmodium falciparum [2])	Activity (Vero)	IC50 (Candida albicans [3])	IC50 (Cryptococcus neoformans [4])	MIC (Cryptococcus neoformans [5])	IC50 [6]	MIC [7]	IC50 (Aspergillus fumigatus [8])	Activity (Escherichia coli)	Activity (Pseudomonas aeruginosa)	MIC (Candida albicans [9])	MIC (Aspergillus fumigatus [10])	IC50 (Candida albicans [3]; [11])	IC50 (Aspergillus fumigatus [8]; Aspergillus fumigatus, read-out: IC50)	IC50 (Cryptococcus neoformans [4]; [12])
CC(C)(C)C(=O)Nc1cccc2c1[nH]c1c(C3=C[C@@]4(O)CC/C=C\CCCCN5CC[C@@H]3[C@]3(C[C@@H]6/C=C\CCCCN6[C@H]34)C5)nccc12 [8-PIVALAMIDOMANZAMINE A]	170 nM	232 nM	Non-toxic	Not Active	Not Active	inactive	540 nM	0.973 µM (≈ 0.63 µg/mL)	Not Active	inactive	inactive	inactive	inactive	–	–	–
CC(=O)Nc1ccc2[nH]c3c(C4=C[C@@]5(O)CC/C=C\CCCCN6CC[C@@H]4[C@]4(C[C@@H]7/C=C\CCCCN7[C@H]45)C6)nccc3c2c1 [6-ACETAMIDOMANZAMINE A]	1290 nM	1980 nM	Non-toxic	Not Active	Not Active	inactive	9910 nM	16.5 µM (≈ 10 µg/mL)	Not Active	inactive	inactive	inactive	inactive	–	–	–
CCC(=O)Nc1cccc2c1[nH]c1c(C3=C[C@@]4(O)CC/C=C\CCCCN5CC[C@@H]3[C@]3(C[C@@H]6/C=C\CCCCN6[C@H]34)C5)nccc12 [8-N-PROPAMIDOMANZAMINE A]	123 nM	87 nM	Non-toxic	–	–	–	1520 nM	2.02 µM (≈ 1.25 µg/mL)	–	inactive	inactive	inactive	inactive	> 32.3 µM	> 32.3 µM	–
CC(C)C(=O)Nc1cccc2c1[nH]c1c(C3=C[C@@]4(O)CC/C=C\CCCCN5CC[C@@H]3[C@]3(C[C@@H]6/C=C\CCCCN6[C@H]34)C5)nccc12 [8-ISOBUTAMIDOMANZAMINE A]	158 nM	205 nM	Non-toxic	Not Active	–	inactive	1030 nM	1.97 µM (≈ 1.25 µg/mL)	Not Active	inactive	inactive	inactive	inactive	–	–	3.16 µM
CCCCC(=O)Nc1ccc2[nH]c3c(C4=C[C@@]5(O)CC/C=C\CCCCN6CC[C@@H]4[C@]4(C[C@@H]7/C=C\CCCCN7[C@H]45)C6)nccc3c2c1 [6-N-PENTAMIDOMANZAMINE A]	1240 nM	1480 nM	Non-toxic	Not Active	Not Active	inactive	2320 nM	3.86 µM (≈ 2.5 µg/mL)	Not Active	inactive	inactive	inactive	inactive	–	–	–
CC(=O)Nc1cccc2c1[nH]c1c(C3=C[C@@]4(O)CC/C=C\CCCCN5CC[C@@H]3[C@]3(C[C@@H]6/C=C\CCCCN6[C@H]34)C5)nccc12 [8-ACETAMIDOMANZAMINE A]	182 nM	231 nM	Non-toxic	Not Active	–	inactive	1650 nM	2.06 µM (≈ 1.25 µg/mL)	Not Active	inactive	inactive	inactive	inactive	–	–	33.4 µM
CC(C)(C)C(=O)Nc1ccc2[nH]c3c(C4=C[C@@]5(O)CC/C=C\CCCCN6CC[C@@H]4[C@]4(C[C@@H]7/C=C\CCCCN7[C@H]45)C6)nccc3c2c1 [6-PIVALAMIDOANZAMINE A]	231 nM	417 nM	Non-toxic	Not Active	Not Active	inactive	1540 nM	3.86 µM (≈ 2.5 µg/mL)	Not Active	inactive	inactive	inactive	inactive	–	–	–
CCCCCC(=O)Nc1ccc2[nH]c3c(C4=C[C@@]5(O)CC/C=C\CCCCN6CC[C@@H]4[C@]4(C[C@@H]7/C=C\CCCCN7[C@H]45)C6)nccc3c2c1 [6-N-HEXAMIDOMANZAMINE A]	680 nM	786 nM	Non-toxic	Not Active	Not Active	inactive	15100 nM	30.2 µM (≈ 20 µg/mL)	Not Active	inactive	inactive	inactive	inactive	–	–	–
CCCCCCC(=O)Nc1cccc2c1[nH]c1c(C3=C[C@@]4(O)CC/C=C\CCCCN5CC[C@@H]3[C@]3(C[C@@H]6/C=C\CCCCN6[C@H]34)C5)nccc12 [8-N-OCTAMIDOMANZAMINE A]	55 nM	43 nM	Non-toxic	Not Active	–	29 µM (≈ 19.6 µg/mL)	508 nM	1.81 µM (≈ 1.23 µg/mL)	Not Active	inactive	inactive	inactive	inactive	–	–	1.01 µM
CCCC(=O)Nc1ccc2[nH]c3c(C4=C[C@@]5(O)CC/C=C\CCCCN6CC[C@@H]4[C@]4(C[C@@H]7/C=C\CCCCN7[C@H]45)C6)nccc3c2c1 [6-N-BUTAMIDOMANZAMINE A]	1150 nM	1890 nM	Non-toxic	Not Active	Not Active	inactive	4740 nM	7.89 µM (≈ 5 µg/mL)	Not Active	inactive	inactive	inactive	inactive	–	–	–
CC(C)(C)CC(=O)Nc1cccc2c1[nH]c1c(C3=C[C@@]4(O)CC/C=C\CCCCN5CC[C@@H]3[C@]3(C[C@@H]6/C=C\CCCCN6[C@H]34)C5)nccc12	139 nM	127 nM	Non-toxic	Not Active	–	inactive	1510 nM	3.78 µM (≈ 2.5 µg/mL)	Not Active	inactive	inactive	inactive	inactive	–	–	14.4 µM
CCCCC(=O)Nc1cccc2c1[nH]c1c(C3=C[C@@]4(O)CC/C=C\CCCCN5CC[C@@H]3[C@]3(C[C@@H]6/C=C\CCCCN6[C@H]34)C5)nccc12 [8-N-PENTAMIDOMANZAMINE A]	53 nM	49 nM	Non-toxic	Not Active	–	inactive	695 nM	0.973 µM (≈ 0.63 µg/mL)	Not Active	inactive	inactive	inactive	inactive	–	–	4.63 µM
CCCCCCC(=O)Nc1ccc2[nH]c3c(C4=C[C@@]5(O)CC/C=C\CCCCN6CC[C@@H]4[C@]4(C[C@@H]7/C=C\CCCCN7[C@H]45)C6)nccc3c2c1 [6-N-OCTAMIDOMANZAMINE A]	696 nM	754 nM	Non-toxic	Not Active	Not Active	inactive	17400 nM	29 µM (≈ 19.6 µg/mL)	Not Active	inactive	inactive	inactive	inactive	–	–	–
CC(C)C(=O)Nc1ccc2[nH]c3c(C4=C[C@@]5(O)CC/C=C\CCCCN6CC[C@@H]4[C@]4(C[C@@H]7/C=C\CCCCN7[C@H]45)C6)nccc3c2c1 [6-ISOBUTAMIDOMANZAMINE A]	1100 nM	1550 nM	Non-toxic	Not Active	Not Active	inactive	3160 nM	3.95 µM (≈ 2.5 µg/mL)	Not Active	inactive	inactive	inactive	inactive	–	–	–
CCC(=O)Nc1ccc2[nH]c3c(C4=C[C@@]5(O)CC/C=C\CCCCN6CC[C@@H]4[C@]4(C[C@@H]7/C=C\CCCCN7[C@H]45)C6)nccc3c2c1 [6-N-PROPAMIDOMANZAMINE A]	1160 nM	1940 nM	Non-toxic	Not Active	Not Active	inactive	5650 nM	8.07 µM (≈ 5 µg/mL)	Not Active	inactive	inactive	inactive	inactive	–	–	–
C[C@@H]1CC[C@H]2[C@@H](C)C(=O)O[C@@H]3O[C@@]4(C)CC[C@@H]1[C@]32OO4 [ARTEMISININ]	46 nM	28 nM	–	–	–	–	–	–	–	–	–	–	–	–	–	–
Oc1cccc2c1[nH]c1c(C3=C[C@@]4(O)CC/C=C\CCCCN5CC[C@@H]3[C@]3(C[C@@H]6/C=C\CCCCN6[C@H]34)C5)nccc12	11 nM	14 nM	–	–	–	–	177 nM	–	–	–	–	inactive	–	6.21 µM	–	3.55 µM
O=C(O)c1cn(C2CC2)c2cc(N3CCNCC3)c(F)cc2c1=O [CIPROFLOXACIN]	–	–	–	–	–	–	1060 nM	–	–	–	–	–	–	–	–	–
